Test [1] relates to Enterococcus faecium (ID-3301). In words: In vitro antibacterial activity, agar dilution MIC. Particulars: Mueller-Hinton agar, 5% sheep blood, 18 hours. In kind it is cell-based. As for the experimental part: (§1) The in vitro antibacterial activity of substantially pure glycopeptide antibiotics AC-98-1, AC-98-2, AC-98-3, AC-98-4, and AC-98-5 from Examples 2 and 3 is determined against a spectrum of bacteria by a standard agar dilution method. Mueller-Hinton agar containing 5% sheep blood and two-fold decreasing concentrations of substantially pure glycopeptide antibiotics AC-98-1, AC-98-2, AC-98-3, AC-98-4, and AC-98-5 from Examples 2 and 3 are poured into petri dishes. The agar surfaces are inoculated with 1 to 5×10^4 colony forming units of bacteria by means of a Steers replicating device. The lowest concentration of antibiotic that inhibited the growth of a bacterial strain after 18 hours incubation is recorded as the minimal inhibitory concentration for that strain.

Test [2] relates to Enterococcus faecium (ID-3953). The test is described as follows: In vitro antibacterial activity, agar dilution MIC. Particulars: Mueller-Hinton agar, 5% sheep blood, 18 hours. The class given is cell-based. As for the experimental part:
as §1
(Agar dilution tests growth on a series of plates holding different concentrations.)

Another test concerns Escherichia coli (J2175). The test is described as follows: In vitro antibacterial activity, agar dilution MIC. The class given is cell-based. As to conditions: Mueller-Hinton agar, 5% sheep blood, 18 hours. As for the experimental part: as §1
For test [3], the system named is Micrococcus luteus (ATCC 9341). In words: In vitro antibacterial activity, agar dilution MIC. As to conditions: ATCC9341, Mueller-Hinton agar, 5% sheep blood, 18 hours. In kind it is cell-based. As to the method:
as §1

In test [4] the test system is Staphylococcus aureus (ID-4379). In words: In vitro antibacterial activity, agar dilution MIC. In kind it is cell-based. As to conditions: Mueller-Hinton agar, 5% sheep blood, 18 hours. As for the experimental part:
as §1

The test system of test [5] is Streptococcus pneumoniae (ID-4444). The test is described as follows: In vitro antibacterial activity, agar dilution MIC. As to conditions: Mueller-Hinton agar, 5% sheep blood, 18 hours. In kind it is cell-based. As for the experimental part:
as §1

Test [6] deals with Staphylococcus aureus Smith. The test is described as follows: In vivo antibacterial activity in infected mice. As to conditions: female CD-1 mice infected intraperitoneally with Staphylococcus aureus Smith; treated intravenously 30 minutes before infection; read-out: ED50 (iv, mg/kg) Staphylococcus aureus. As for the experimental part:
The in vivo antibacterial activity of substantially pure glycopeptides AC-98-1, AC-98-2, AC-98-3, AC-98-4, and AC-98-5 is established by infecting female CD-1 mice from Charles River Laboratories, weighing 20+/−2 g each, intraperitoneally with 6.5×10^5 CFU/0.5 ml of broth of Staphylococcus aureus Smith. The mice are treated intravenously, 30 minutes before infection with the indicated dose of the test compound in 0.2 ml of water.

Test [7] has as its system Escherichia coli (ATCC 25922). In words: In vitro antibacterial activity, agar dilution MIC. As to conditions: ATCC25922, Mueller-Hinton agar, 5% sheep blood, 18 hours. In kind it is cell-based. As to the method:
as §1

Test [8] has as its system Streptococcus pneumoniae (GC1889). In words: In vitro antibacterial activity, agar dilution MIC. In kind it is cell-based. Particulars: Mueller-Hinton agar, 5% sheep blood, 18 hours. As for the experimental part: as §1

Values after ≈ are worked out from the molar mass of the structure shown. Numbered stars: 1 amine (or outer) side, 2 acyl side, 3 side chain; on linkers, the order of the positions; unused ones are H or OH. Square brackets hold non-standard residues; d marks the D form. Peptide text beside a SMILES is read from it. * marks the point of attachment. ξ: configuration not given here. X1 = N=C1NCC(C(O)C(N[*:1])C(=O)[*:2])N1C1OC(CO)C(O)C(O)C1O; ξEnduracididine(βξ-OH,4'ξ) = N=C1NCC(C(O)C(N)C(=O)O)N1; X2 = OCC1OC(OC2C(CO)OC(*)C(O)C2O)C(O)C(O)C1O; ξPhe(βξ-Me) = CC(c1ccccc1)C(N)C(=O)O A value given as a limit tells only on which side of the number the result lay.

The MIC is the lowest concentration that inhibits growth of the organism. Read a low MIC as inhibition by little substance. Take `CC(C)CC(=O)OC1C(CO)OC(OC2C(CO)OC(Oc3ccc(CC4NC(=O)C(C(C)c5ccccc5)NC(=O)CNC(=O)C(CO)NC(=O)C(C(O)C5CNC(=N)N5C5OC(CO)C(O)C(O)C5O)NC(=O)C(C(O)C5CNC(=N)N5)NC4=O)cc3)C(O)C2O)C(O)C1O` (stereo not drawn) [AC-98-5]: the MIC amounted to 16 mg/mL (≈ 11.6 mM) in test [1]; 32 mg/mL (≈ 23.2 mM) in test [2]; 64 mg/mL (≈ 46.4 mM) against Escherichia coli (J2175); 1000 µg/mL (≈ 0.725 mM) in test [3]; 4000 µg/mL (≈ 2.9 mM) in test [4]; 2000 µg/mL (≈ 1.45 mM) in test [5]. In addition, the ED50 in test [6] was 0.6 mg/kg.

On to `CC(c1ccccc1)C1NC(=O)CNC(=O)C(CO)NC(=O)C(C(O)C2CNC(=N)N2C2OC(CO)C(O)C(O)C2O)NC(=O)C(C(O)C2CNC(=N)N2)NC(=O)C(Cc2ccc(O)cc2)NC1=O` (stereo not drawn) [AC-98-2] (cyclo(G[ξPhe(βξ-Me)]Y[ξEnduracididine(βξ-OH,4'ξ)][X1]S); configuration not given here), for which the minimal inhibitory concentration (MIC) in test [7] is 64 mg/mL (≈ 65.9 mM); in the test with Escherichia coli (J2175) it was 64 mg/mL (≈ 65.9 mM); in test [3] it was 16000 µg/mL (≈ 16.5 mM); in [4] it was 64000 µg/mL (≈ 65.9 mM); in test [5] it was above 64000 µg/mL. Besides, the ED50 in [6] is above 32 mg/kg.

For the compound `CC(C)CC(=O)OC1C(OC2C(CO)OC(Oc3ccc(CC4NC(=O)C(C(C)c5ccccc5)NC(=O)CNC(=O)C(CO)NC(=O)C(C(O)C5CNC(=N)N5C5OC(CO)C(O)C(O)C5O)NC(=O)C(C(O)C5CNC(=N)N5)NC4=O)cc3)C(O)C2O)OC(CO)C(O)C1O` (stereo not drawn) [AC-98-3], the MIC in test [1] was 64 mg/mL (≈ 46.4 mM); in [2], 64 mg/mL (≈ 46.4 mM); in test [3] it was 2000 µg/mL (≈ 1.45 mM); in [4] it was 8000 µg/mL (≈ 5.8 mM); in [8] it was 4000 µg/mL (≈ 2.9 mM); in [5], 8000 µg/mL (≈ 5.8 mM). Besides, the ED50 in test [6] is 3.8 mg/kg.

Turning to `CC(C)CC(=O)OC1C(O)C(CO)OC(OC2C(CO)OC(Oc3ccc(CC4NC(=O)C(C(C)c5ccccc5)NC(=O)CNC(=O)C(CO)NC(=O)C(C(O)C5CNC(=N)N5C5OC(CO)C(O)C(O)C5O)NC(=O)C(C(O)C5CNC(=N)N5)NC4=O)cc3)C(O)C2O)C1O` (stereo not drawn) [AC-98-4], the MIC was found to be 64 mg/mL (≈ 46.4 mM) in [1]; 64 mg/mL (≈ 46.4 mM) in test [2]; 2000 µg/mL (≈ 1.45 mM) in [3]; 4000 µg/mL (≈ 2.9 mM) in test [4]; 4000 µg/mL (≈ 2.9 mM) in test [8]; 4000 µg/mL (≈ 2.9 mM) in test [5]. For the same compound, the ED50 in [6] stood at 2.6 mg/kg.

`CC(c1ccccc1)C1NC(=O)CNC(=O)C(CO)NC(=O)C(C(O)C2CNC(=N)N2C2OC(CO)C(O)C(O)C2O)NC(=O)C(C(O)C2CNC(=N)N2)NC(=O)C(Cc2ccc(OC3OC(CO)C(OC4OC(CO)C(O)C(O)C4O)C(O)C3O)cc2)NC1=O` (stereo not drawn) [AC-98-1] (cyclo(G[ξPhe(βξ-Me)]Y(X2)[ξEnduracididine(βξ-OH,4'ξ)][X1]S); configuration not given here): the MIC in [3] is 64000 µg/mL (≈ 49.4 mM); in [5] it was above 32000 µg/mL. Further, in [6], the ED50 worked out at 20 mg/kg.

These data come from patent US7183253B2, “Substantially pure glycopeptide antibiotics AC-98-1, AC-98-2, AC-98-3, AC-98-4 and AC-98-5” (Wyeth Holdings Corp., priority 2001, dated 2007).
